# In ChEMBL document CHEMBL3045719, “Insecticidal and Neuroblocking Activities toward American Cockroach (Periplaneta americana L.) of Imidacloprid Metabolites, 5-Hydroxy-, 4,5-Dihydroxy- and 4,5-Dehydroimidacloprid” (J Pestic Sci, 2004):
# Activity calls are given as the source filed them. The rule behind the calls is not given here.
# What was measured:
# [1] = system: Periplaneta americana; assay: Insecticidal activity against adult form of Periplaneta americana (American cockroach) assessed as concentration required for neuroblock in excised central nerve cord; assay type: functional
# [2] = system: Periplaneta americana; assay: Insecticidal activity against adult form of Periplaneta americana (American cockroach) assessed as paralysis compound injected into abdominal region measured after 24 hr; assay type: functional
# [3] = system: Periplaneta americana; assay: Insecticidal activity against adult form of Periplaneta americana (American cockroach) assessed as paralysis at 250 nmol injected into abdominal region measured after 1 to 32 hr; assay type: functional, organism-based
# [4] = system: Periplaneta americana; assay: Insecticidal activity against adult form of Periplaneta americana (American cockroach) assessed as paralysis at 8.4 nmol stored at 4 degC for 10 days injected into abdominal region measured after 2 hr; assay type: functional, organism-based
# [5] = system: Periplaneta americana; assay: Insecticidal activity against adult form of Periplaneta americana (American cockroach) assessed as paralysis at 8.4 nmol stored at 4 degC for 10 days injected into abdominal region measured after 1 hr; assay type: functional, organism-based
# [6] = system: Periplaneta americana; assay: Insecticidal activity against adult form of Periplaneta americana (American cockroach) assessed as paralysis at 8.4 nmol injected into abdominal region measured after 24 hr; assay type: functional, organism-based
# [7] = system: Periplaneta americana; assay: Insecticidal activity against adult form of Periplaneta americana (American cockroach) assessed as paralysis at 8.4 nmol injected into abdominal region measured after 13 hr; assay type: functional, organism-based
# [8] = system: Periplaneta americana; assay: Insecticidal activity against adult form of Periplaneta americana (American cockroach) assessed as paralysis at 8.4 nmol injected into abdominal region measured after 8 hr; assay type: functional, organism-based
# [9] = system: Periplaneta americana; assay: Insecticidal activity against adult form of Periplaneta americana (American cockroach) assessed as paralysis at 8.4 nmol injected into abdominal region measured after 3 hr; assay type: functional, organism-based
# [10] = system: Periplaneta americana; assay: Insecticidal activity against adult form of Periplaneta americana (American cockroach) assessed as paralysis at 8.4 nmol injected into abdominal region measured after 2 hr; assay type: functional, organism-based
# [11] = system: Periplaneta americana; assay: Ratio of imidacloprid efficacy to compound efficacy adult form of Periplaneta americana (American cockroach) assessed as concentration required for neuroblock in excised central nerve cord; assay type: functional
# [12] = Lipophilicity, log P of the compound; assay type: physicochemical; conditions: octanol/water
# [13] = system: Periplaneta americana; assay: Ratio of imidacloprid MLD to compound MLD for adult form of Periplaneta americana (American cockroach) assessed as paralysis compound injected into abdominal region measured after 24 hr; assay type: functional
# [14] = system: Periplaneta americana; assay: Insecticidal activity against adult form of Periplaneta americana (American cockroach) assessed as paralysis at 8.4 nmol injected into abdominal region measured after 1 hr; assay type: functional, organism-based
# [15] = system: Periplaneta americana; assay: Insecticidal activity against adult form of Periplaneta americana (American cockroach) assessed as paralysis at 8.4 nmol injected into abdominal region measured after 32 hr; assay type: functional, organism-based
# [16] = system: Periplaneta americana; assay: Insecticidal activity against adult form of Periplaneta americana (American cockroach) assessed as paralysis at 8.4 nmol stored at 4 degC for 10 days injected into abdominal region measured after 3 hr; assay type: functional, organism-based
# [17] = system: Periplaneta americana; assay: Insecticidal activity against adult form of Periplaneta americana (American cockroach) assessed as paralysis at 19 nmol injected into abdominal region measured after 32 hr; assay type: functional, organism-based
# [18] = system: Periplaneta americana; assay: Insecticidal activity against adult form of Periplaneta americana (American cockroach) assessed as paralysis at 19 nmol injected into abdominal region measured after 24 hr; assay type: functional, organism-based
# [19] = system: Periplaneta americana; assay: Insecticidal activity against adult form of Periplaneta americana (American cockroach) assessed as paralysis at 19 nmol injected into abdominal region measured after 13 hr; assay type: functional, organism-based
# [20] = system: Periplaneta americana; assay: Insecticidal activity against adult form of Periplaneta americana (American cockroach) assessed as paralysis at 19 nmol injected into abdominal region measured after 8 hr; assay type: functional, organism-based
# [21] = system: Periplaneta americana; assay: Insecticidal activity against adult form of Periplaneta americana (American cockroach) assessed as paralysis at 19 nmol injected into abdominal region measured after 3 hr; assay type: functional, organism-based
# [22] = system: Periplaneta americana; assay: Insecticidal activity against adult form of Periplaneta americana (American cockroach) assessed as paralysis at 19 nmol injected into abdominal region measured after 2 hr; assay type: functional, organism-based
# [23] = system: Periplaneta americana; assay: Insecticidal activity against adult form of Periplaneta americana (American cockroach) assessed as paralysis at 19 nmol injected into abdominal region measured after 1 hr; assay type: functional, organism-based
# [24] = molecular target: T1, Nicotinic acetylcholine receptor alpha 5 subunit (Musca domestica) (UniProt A9XFY4); assay: Binding affinity to nicotinic acetylcholine receptor in Musca domestica (house fly) head membrane relative to imidacloprid
# T1 sequence (whole entry): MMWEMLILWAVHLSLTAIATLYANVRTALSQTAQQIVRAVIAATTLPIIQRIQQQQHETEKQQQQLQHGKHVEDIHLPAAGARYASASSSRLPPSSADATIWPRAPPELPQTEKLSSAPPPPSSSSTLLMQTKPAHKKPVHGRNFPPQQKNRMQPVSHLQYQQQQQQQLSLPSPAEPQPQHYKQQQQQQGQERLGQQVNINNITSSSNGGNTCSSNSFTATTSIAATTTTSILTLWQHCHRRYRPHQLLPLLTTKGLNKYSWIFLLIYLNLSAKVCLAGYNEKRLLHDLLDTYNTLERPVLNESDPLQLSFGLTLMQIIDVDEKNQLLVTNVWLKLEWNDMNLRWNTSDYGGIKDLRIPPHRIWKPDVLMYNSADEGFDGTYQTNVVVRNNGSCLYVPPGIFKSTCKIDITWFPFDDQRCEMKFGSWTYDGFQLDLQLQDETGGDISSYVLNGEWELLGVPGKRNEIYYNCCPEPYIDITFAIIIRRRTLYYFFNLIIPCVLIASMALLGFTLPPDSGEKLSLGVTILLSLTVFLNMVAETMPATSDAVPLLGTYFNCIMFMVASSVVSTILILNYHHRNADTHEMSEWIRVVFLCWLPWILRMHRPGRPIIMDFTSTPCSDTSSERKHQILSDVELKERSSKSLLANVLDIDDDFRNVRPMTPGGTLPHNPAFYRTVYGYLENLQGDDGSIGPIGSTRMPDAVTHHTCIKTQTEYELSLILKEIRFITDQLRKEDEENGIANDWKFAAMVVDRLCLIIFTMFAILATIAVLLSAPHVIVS
# [25] = system: Myzus persicae; assay: Ratio of imidacloprid efficacy to compound efficacy for po dosed Myzus persicae (green peach aphid); assay type: functional
# [26] = system: Bemisia tabaci; assay: Ratio of imidacloprid efficacy to compound efficacy for po dosed Bemisia tabaci (sweet potato whitefly); assay type: functional
# [27] = system: Aphis gossypii; assay: Ratio of imidacloprid efficacy to compound efficacy for po dosed Aphis gossypii (cotton aphid); assay type: functional
# [28] = system: Periplaneta americana; assay: Insecticidal activity against adult form of Periplaneta americana (American cockroach) assessed as paralysis at 1.1 nmol injected into abdominal region measured after 24 hr; assay type: functional, organism-based
# [29] = system: Periplaneta americana; assay: Insecticidal activity against adult form of Periplaneta americana (American cockroach) assessed as paralysis at 1.1 nmol injected into abdominal region measured after 13 hr; assay type: functional, organism-based
# [30] = system: Periplaneta americana; assay: Insecticidal activity against adult form of Periplaneta americana (American cockroach) assessed as paralysis at 1.1 nmol injected into abdominal region measured after 3 hr; assay type: functional, organism-based
# [31] = system: Periplaneta americana; assay: Insecticidal activity against adult form of Periplaneta americana (American cockroach) assessed as paralysis at 1.1 nmol injected into abdominal region measured after 8 hr; assay type: functional, organism-based
# [32] = system: Periplaneta americana; assay: Insecticidal activity against adult form of Periplaneta americana (American cockroach) assessed as paralysis at 1.1 nmol injected into abdominal region measured after 2 hr; assay type: functional, organism-based
# [33] = system: Periplaneta americana; assay: Insecticidal activity against adult form of Periplaneta americana (American cockroach) assessed as paralysis at 1.1 nmol injected into abdominal region measured after 1 hr; assay type: functional, organism-based
# [34] = system: Periplaneta americana; assay: Insecticidal activity against adult form of Periplaneta americana (American cockroach) assessed as paralysis at 1.1 nmol injected into abdominal region measured after 32 hr; assay type: functional, organism-based
# [35] = Half life in Apis mellifera (honey bee); assay type: ADME, organism-based; conditions: in vivo
smiles,measurement,setting,value
"O=[N+]([O-])/N=C1\NC(O)C(O)N1Cc1ccc(Cl)nc1 (centres undefined) [4,5-DIHYDROXYIMIDACLOPRID]",Activity,[1],>370 µM
same,MLD,[2],>250 nmol
same,Activity,[3],inactive
O=[N+]([O-])/N=C1\NCC(O)N1Cc1ccc(Cl)nc1 (centres undefined) [5-HYDROXYIMIDACLOPRID],Activity,[4],Active
same,Activity,[5],Active
same,Activity,[6],Active
same,Activity,[7],Active
same,Activity,[8],Active
same,Activity,[9],Active
same,Activity,[10],Active
same,Activity,[1],150 µM
same,MLD,[2],11 nmol
same,Ratio,[11],20
same,logP,[12],8
same,Ratio,[13],10
same,Activity,[14],inactive
same,Activity,[15],inactive
same,Activity,[16],Active
O=[N+]([O-])Nc1nccn1Cc1ccc(Cl)nc1 [DEHYDROIMIDACLOPRID],Activity,[17],Active
same,Activity,[18],Active
same,Activity,[19],Active
same,Activity,[20],Active
same,Activity,[21],Active
same,Activity,[22],Active
same,Activity,[23],Active
same,Activity,[1],49 µM
same,MLD,[2],19 nmol
same,Ratio,[24],3
same,Ratio,[11],20
same,Ratio,[25],>10
same,Ratio,[26],>10
same,Ratio,[27],>10
same,logP,[12],0.45
same,Ratio,[13],10
O=[N+]([O-])/N=C1\NCCN1Cc1ccc(Cl)nc1 [IMIDACLOPRID],Activity,[28],Active
same,Activity,[29],Active
same,Activity,[30],Active
same,Activity,[31],Active
same,Activity,[32],Active
same,Activity,[33],Active
same,Activity,[1],2.3 µM
same,MLD,[2],1.1 nmol
same,Activity,[34],inactive
O=[N+]([O-])NC1=NCCN1Cc1ccc(Cl)nc1 [IMIDACLOPRID],half-life,[35],4.5 h
